Measured values from US20260217687A1 (NeoPhore Limited, priority 2023, published 2026).

What follows are molecules tested against T1, recombinant N-terminal MLH1 (residues 15-340) (Homo sapiens, UniProt P40692) (assay: Fluorescence Polarisation Assay for MLH1). Conditions: 100 nM N-terminal MLH1, 5 nM probe compound.
T1 construct: recombinant N-terminal MLH1 (residues 15-340)
T1 sequence (P40692 15-340): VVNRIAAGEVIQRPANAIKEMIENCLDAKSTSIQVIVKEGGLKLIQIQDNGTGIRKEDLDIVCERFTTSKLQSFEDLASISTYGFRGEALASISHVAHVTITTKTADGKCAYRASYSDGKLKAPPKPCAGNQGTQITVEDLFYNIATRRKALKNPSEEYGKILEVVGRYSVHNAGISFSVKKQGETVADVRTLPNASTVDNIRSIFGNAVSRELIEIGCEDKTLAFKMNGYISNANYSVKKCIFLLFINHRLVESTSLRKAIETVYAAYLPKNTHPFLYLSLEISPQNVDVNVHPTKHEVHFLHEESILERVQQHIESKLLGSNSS
Type: binding
How it was run: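 Fluorescence polarisation displacement: 100 nM MLH1 (15-340) preincubated 30 min at room temperature with compound, then 5 nM rhodamine-labelled probe added and read immediately. Buffer 25 mM HEPES pH 7.5, 250 mM NaCl, 10 mM MgCl2, 0.01% Triton X-100, 5 mM DTT; normalised to no-inhibitor and no-enzyme controls.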
Work on `CN(C)CCOc1cc2c(c(C(F)F)c1)CN(C(=O)c1c(O)cc(C(F)F)cc1OCc1ccccc1)CC2` [Example 4.74, (2-(Benzyloxy)-4-(difluoromethyl)-6-hydroxyphenyl)(8-(difluoromethyl)-6-(2-(dimethylamino)ethoxy)-3,4-dihydroisoquinolin-2(1H)-yl)methanone] yielded an IC50 of 0.1 to 1 µM. Work on `CN(C)Cc1cc2c(c(N[C@H]3CCOC3)c1)CN(C(=O)c1c(O)cc(C(F)F)cc1OCc1ccccc1)CC2` [Example 4.21, (S)-(2-(Benzyloxy)-4-(difluoromethyl)-6-hydroxyphenyl)(6-((dimethylamino)methyl)-8-((tetrahydrofuran-3-yl)amino)-3,4-dihydroisoquinolin-2(1H)-yl)methanone] yielded an IC50 of under 0.1 µM. `O=C(c1c(O)cc(C(F)F)cc1OCc1ccccc1)N1Cc2ccc(Oc3ccncn3)cc2C1` [Example 4.61] gave an IC50 of 0.1 to 1 µM. Molecule `COc1ccc2c(c1N[C@H]1CCOC1)CN(C(=O)c1c(O)cc(C(F)F)cc1OCc1ccccc1)CC2` [Example 4.23, (S)-(2-(Benzyloxy)-4-(difluoromethyl)-6-hydroxyphenyl)(7-methoxy-8-((tetrahydrofuran-3-yl)amino)-3,4-dihydroisoquinolin-2(1H)-yl)methanone] has an IC50 of 1 to 10 µM. Molecule `CN1CCN(c2cc3c(cn2)CN(C(=O)c2c(O)cc(C#N)cc2OCc2ccccc2)C3)CC1` [Example 27.1, 3-(Benzyloxy)-5-hydroxy-4-(6-(4-methylpiperazin-1-yl)-2,3-dihydro-1H-pyrrolo[3,4-c]pyridine-2-carbonyl)benzonitrile] has an IC50 of 1 to 10 µM. Work on `COCCOc1ccc2c(c1)CN(C(=O)c1c(O)cc(C#N)cc1OCc1ccccc1)C2` [Example 10.35, 3-(Benzyloxy)-5-hydroxy-4-(5-(2-methoxyethoxy)isoindoline-2-carbonyl)benzonitrile] yielded an IC50 of 0.1 to 1 µM. For `O=C(c1c(O)cc(C(F)F)cc1OCc1ccccc1)N1Cc2ccccc2C1` [Example 4.54, (2-(Benzyloxy)-4-(difluoromethyl)-6-hydroxyphenyl)(isoindolin-2-yl)methanone], the IC50 was 1 to 10 µM. Work on `O=C(c1c(O)cc(C(F)F)cc1OCc1ccc2cnccc2c1)N1CCc2cccc(N[C@H]3CCOC3)c2C1` [Example 28.2, (S)-(4-(Difluoromethyl)-2-hydroxy-6-(isoquinolin-6-ylmethoxy)phenyl)(8-((tetrahydrofuran-3-yl)amino)-3,4-dihydroisoquinolin-2(1H)-yl)methanone] yielded an IC50 of under 0.1 µM. Work on `N#Cc1cc(O)c(C(=O)N2Cc3cnc(N4CCOCC4)cc3C2)c(OCc2ccccc2)c1` [Example 27.8, 3-(Benzyloxy)-5-hydroxy-4-(6-morpholino-2,3-dihydro-1H-pyrrolo[3,4-c]pyridine-2-carbonyl)benzonitrile] yielded an IC50 of 1 to 10 µM. `O=C(c1c(O)cc(C(F)F)cc1OCc1ccccc1)N1Cc2cc(Cn3ccnc3)cc(N[C@H]3CCOC3)c2C1` [Example 4.19, (S)-(6-((1H-Imidazol-1-yl)methyl)-4-((tetrahydrofuran-3-yl)amino)isoindolin-2-yl) (2-(benzyloxy)-4-(difluoromethyl)-6-hydroxyphenyl)methanone] was tested, and the IC50 was 0.1 to 1 µM. Molecule `CN1CC[C@H](Oc2ccc3c(c2)CCN(C(=O)c2c(O)cc(C(F)F)cc2OCc2ccccc2)C3)C1` [Example 4.64, (S)-(2-(Benzyloxy)-4-(difluoromethyl)-6-hydroxyphenyl)(6-((1-methylpyrrolidin-3-yl)oxy)-3,4-dihydroisoquinolin-2(1H)yl)methanone] has an IC50 of 0.1 to 1 µM. Molecule `CN1CCC(Oc2ccc3c(c2)CCN(C(=O)c2c(O)cc(C#N)cc2OCc2ccccc2)CC3)CC1` [Example 27.6, 3-(Benzyloxy)-5-hydroxy-4-(7-((1-methylpiperidin-4-yl)oxy)-2,3,4,5-tetrahydro-1H-benzo[d]azepine-3-carbonyl)benzonitrile hydroformate] has an IC50 of 1 to 10 µM. Work on `O=C(c1c(O)cc(C(F)F)cc1OCc1nc2ccccc2[nH]1)N1CCc2cccc(N[C@H]3CCOC3)c2C1` [Example 28.4, (S)-(2-((1H-Benzo[d]imidazol-2-yl)methoxy)-4-(difluoromethyl)-6-hydroxyphenyl)(8-((tetrahydrofuran-3-yl)amino)-3,4-dihydroisoquinolin-2(1H)-yl)methanone] yielded an IC50 of 1 to 10 µM. In the case of `CN1CC[C@@H](Nc2cccc3c2CN(C(=O)c2c(O)cc(C(F)F)cc2OCc2ccccc2)C3)C1=O` [Example 4.14, (R)-3-((2-(2-(Benzyloxy)-4-(difluoromethyl)-6-hydroxybenzoyl)isoindolin-4-yl)amino)-1-methylpyrrolidin-2-one], the IC50 is reported as 0.1 to 1 µM. `CN1CCC(Oc2ccc3c(c2)CCN(C(=O)c2c(O)cc(C(F)F)cc2OCc2ccccc2)C3)CC1` [Example 4.45, (2-(Benzyloxy)-4-(difluoromethyl)-6-hydroxyphenyl)(6-((1-methylpiperidin-4-yl)oxy)-3,4-dihydroisoquinolin-2(1H)-yl)methanone] gave an IC50 of 0.1 to 1 µM. With `O=C(c1c(O)cc(C(F)F)cc1OCc1ccccc1)N1CCCc2cc(NC3CCOC3)ccc21` (centres unmarked) [Example 27.19, (2-(Benzyloxy)-4-(difluoromethyl)-6-hydroxyphenyl)(6-((tetrahydrofuran-3-yl)amino)-3,4-dihydroquinolin-1(2H)-yl)methanone] the IC50 was 1 to 10 µM. Work on `O=C(c1c(O)cc(C(F)F)cc1OCc1ccc2ccncc2c1)N1CCc2cccc(N[C@H]3CCOC3)c2C1` [Example 28.3, (S)-(4-(Difluoromethyl)-2-hydroxy-6-(isoquinolin-7-ylmethoxy)phenyl)(8-((tetrahydrofuran-3-yl)amino)-3,4-dihydroisoquinolin-2(1H)-yl)methanone] yielded an IC50 of 0.1 to 1 µM. With `CN(C)Cc1ccc2c(c1)CN(C(=O)c1c(O)cc(C(F)F)cc1OCc1ccccc1)C2` [Example 4.51, (2-(Benzyloxy)-4-(difluoromethyl)-6-hydroxyphenyl)(5-((dimethylamino)methyl)isoindolin-2-yl)methanone] the IC50 was 0.1 to 1 µM. With `Cn1cncc1-c1cc2c(c(N[C@H]3CCOC3)c1)CN(C(=O)c1c(O)cc(C(F)F)cc1OCc1ccccc1)CC2` [Example 4.26, (S)-(2-(Benzyloxy)-4-(difluoromethyl)-6-hydroxyphenyl) (6-(1-methyl-1H-imidazol-5-yl)-8-((tetrahydrofuran-3-yl)amino)-3,4-dihydroisoquinolin-2(1H)-yl)methanone] the IC50 was 0.1 to 1 µM. With `CNc1cccc2c1CN(C(=O)c1c(O)cc(C(F)F)cc1OCc1ccccc1)CC2` [Example 4.36, (2-(Benzyloxy)-4-(difluoromethyl)-6-hydroxyphenyl)(8-(methylamino)-3,4-dihydroisoquinolin-2(1H)-yl)methanone] the IC50 was 1 to 10 µM. `O=C1OCCC1Nc1cccc2c1CN(C(=O)c1c(O)cc(C(F)F)cc1OCc1ccccc1)CC2` (centres unmarked) [Example 4.17, 3-((2-(2-(Benzyloxy)-4-(difluoromethyl)-6-hydroxybenzoyl)-1,2,3,4-tetrahydroisoquinolin-8-yl)amino) dihydrofuran-2(3H)-one] showed an IC50 of 0.1 to 1 µM. Molecule `N#Cc1cc(O)c(C(=O)N2Cc3cccc(NCC4CCOC4)c3C2)c(OCc2ccccc2)c1` (centres unmarked) [Example 10.10, 3-(Benzyloxy)-5-hydroxy-4-(4-(((tetrahydrofuran-3-yl)methyl)amino)isoindoline-2-carbonyl)benzonitrile] has an IC50 of 1 to 10 µM. In the case of `CN(C)CCOc1cc2c(c(N[C@@H]3CCOC3)c1)CN(C(=O)c1c(O)cc(C#N)cc1OCc1ccccc1)CC2` [Example 14, (R)-3-(Benzyloxy)-4-(6-(2-(dimethylamino)ethoxy)-8-((tetrahydrofuran-3-yl)amino)-1,2,3,4-tetrahydroisoquinoline-2-carbonyl)-5-hydroxybenzonitrile], the IC50 is reported as 0.1 to 1 µM. `COc1ccc2c(c1)CN(C(=O)c1c(O)cc(C#N)cc1OCc1ccccc1)C2` [Example 13, 3-(Benzyloxy)-5-hydroxy-4-(5-methoxyisoindoline-2-carbonyl)benzonitrile] showed an IC50 of 1 to 10 µM. `CN1CCC(Oc2ccc3c(c2)CN(C(=O)c2c(O)cc(C#N)cc2OCc2ccccc2)C3)CC1` [Example 10.33, 3-(Benzyloxy)-5-hydroxy-4-(5-((1-methylpiperidin-4-yl)oxy)isoindoline-2-carbonyl)benzonitrile] was tested, and the IC50 was 0.1 to 1 µM. In the case of `CN1CCC(Oc2ccc3c(c2)CN(C(=O)c2c(O)cc(C(F)F)cc2OCc2ccccn2)C3)CC1` [Example 4.58, (4-(Difluoromethyl)-2-hydroxy-6-(pyridin-2-ylmethoxy)phenyl)(5-((1-methylpiperidin-4-yl)oxy)isoindolin-2-yl)methanone], the IC50 is reported as 0.1 to 1 µM. `O=C(c1c(O)cc(C(F)F)cc1OCc1ccccc1)N1CCc2ccc(Cn3ccnc3)cc2C1` [Example 4.48, (7-((1H-Imidazol-1-yl)methyl)-3,4-dihydroisoquinolin-2(1H)-yl)(2-(benzyloxy)-4-(difluoromethyl)-6-hydroxyphenyl)methanone] was tested, and the IC50 was 0.1 to 1 µM. For `Cn1cncc1-c1cc2c(c(N[C@H]3CCOC3)c1)CN(C(=O)c1c(O)cc(C(F)F)cc1OCc1ccccc1)C2` [Example 4.24, (S)-(2-(Benzyloxy)-4-(difluoromethyl)-6-hydroxyphenyl)(6-(1-methyl-1H-imidazol-5-yl)-4-((tetrahydrofuran-3-yl)amino)isoindolin-2-yl)methanone], the IC50 was 0.1 to 1 µM. `CN1CC[C@H](Nc2cccc3c2CN(C(=O)c2c(O)cc(C(F)F)cc2OCc2ccccc2)CC3)C1=O` [Example 4.13, (S)-3-((2-(2-(benzyloxy)-4-(difluoromethyl)-6-hydroxybenzoyl)-1,2,3,4-tetrahydroisoquinolin-8-yl)amino)-1-methylpyrrolidin-2-one] showed an IC50 of 0.1 to 1 µM.
